Measured values from patent publication US5352587A, “Compositions and methods for the synthesis of natriuretic protein receptor B and methods of use” (Genentech, Inc., priority 1991, dated 1994).
Ends that are not written are not given here.

Columns and labels:
membrane GC = details: literature refs 14, 15; cited from earlier work
[1] = biological target: 130 kDa ANP receptor-GC from adrenal glomerulosa; details: literature refs 10, 11; cited from earlier work
[2] = tested on: active site of protein kinases; details: literature refs 12, 13; cited from earlier work
[3] = biological target: T1, NPRB lacking its kinase and guanylyl cyclase domains (BDKC) (Homo sapiens, UniProt P20594); assay: Scatchard analysis of binding to 293 cells expressing NPRB less the kinase and cyclase domains (BDKC); details: two hours at room temperature (21° C.), LIGAND program, read-out: dissociation constant (Kd)
T1 construct: expressed in transfected cells
T1 sequence (P20594 23-501): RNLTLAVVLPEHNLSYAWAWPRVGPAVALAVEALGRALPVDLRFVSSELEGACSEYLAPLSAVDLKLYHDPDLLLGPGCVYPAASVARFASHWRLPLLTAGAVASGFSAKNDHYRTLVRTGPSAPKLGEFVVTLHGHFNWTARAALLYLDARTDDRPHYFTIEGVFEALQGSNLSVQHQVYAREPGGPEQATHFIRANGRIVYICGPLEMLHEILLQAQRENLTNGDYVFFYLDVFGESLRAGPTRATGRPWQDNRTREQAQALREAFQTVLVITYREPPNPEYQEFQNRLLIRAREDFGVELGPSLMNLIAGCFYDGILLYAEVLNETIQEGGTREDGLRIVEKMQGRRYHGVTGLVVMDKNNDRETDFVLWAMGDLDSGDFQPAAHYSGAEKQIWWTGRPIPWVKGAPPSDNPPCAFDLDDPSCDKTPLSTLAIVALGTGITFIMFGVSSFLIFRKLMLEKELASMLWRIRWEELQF
Text: Scatchard analysis was used to determine the binding affinities of the natriuretic peptides for NPRB. An expression vector using pRK was constructed such that the NPRB lacked its kinase and guanylyl cyclase domains. This mutation was effected by introduction of a termination codon at condo 480 of the mature NPRB protein. A recombinant cell line expressing NPRB less the kinase and cyclase domains (BDKC) was developed by calcium phosphate transfection of 293 cells as described above. These stable cell lines were screened for expression of BDKC by binding of porcine BNP which contained 26 amino acids (^125 l-pBNP[26]). […] Binding was allowed to proceed to equilibrium by incubation for two hours at room temperature (21° C.), the bound ^125 l-pBNP(26) was separated from unbound by centrifugation for 7 minutes at 4° C. The supernatant was aspirated and the cell pellet was counted in a gamma counter for ^125 l quantitation. Background binding was subtracted from total binding to give specific binding and the specific binding vs. dose of ^125 l-pBNA data was analyzed by the LIGAND program of Munson and Rodbard (Analytical Biochemistry 107, 220-239 [1980]). The results shown are in FIG. 5.

soluble NPRB = assay: Binding to soluble NPRB extracellular domain (1-433) in concentrated conditioned medium; design: species or system human
Protocol: Soluble extracellular domain of NPRB was engineered by introducing a translation termination codon at position 434 to produce the 1-433 fragment of the NPRB sequence illustrated in FIG. 1. A stable cell line was developed in 293 cells as described for 293NPRBDKC, and clones were screened by binding of ^125 lBNP to receptor in condition medium. Control 293 cells or the stable cell line 293BCF.15 (NPRB cell free) were plated 24 hours prior to the addition of serum free conditioned medium. Medium was left on the cells for 72 hours then collected for analysis of the […] synthesized. The media was vacuum filtered through a […] filter (Millipore Corp) then concentrated 8-fold by ultrafiltration on an Amicon Corp centriprep YM30 membrane. A 0.5 ml sample of concentrated conditioned media was incubated for one hour in the presence of 0.25 mCi of ^125 l-pBNP(26) (2462 Ci/mmole) with (background binding) or without (total binding) 1.2 mM pBNP(26). A 1.0 ml sample of activated charcoal solution (Fuller et al. J. Biol. Chem. 264, 14179-14184 [1989]) was added to absorb unbound label and recovered by centrifugation. The supernatant (1.4 ml) was removed for determination of ^125 l-pBNP bound to receptor by gamma counting. Specific binding was calculated from the difference between total binding minus background binding. […]

Nc1ncnc2c1ncn2[C@@H]1O[C@H](COP(=O)(O)OP(=O)(O)OP(=O)(O)O)[C@@H](O)[C@H]1O [ATP]
effect on Vmax of membrane GC in response to ANP stimulation (membrane GC): increasing the Vmax of membrane GC in response to ANP stimulation

N=C(N)NC(=O)c1nc(Cl)c(N)nc1N [amiloride]
effect on receptor conformation and Kd for ANP [1]: change in receptor conformation and a lowering of the Kd for ANP
inhibition of ATP binding to the active site of protein kinases [2]: competitive inhibitor of ATP binding to the active site of protein kinases

^125 l-pBNP(26): porcine BNP which contained 26 amino acids, ^125 l labelled (DSGCFGRRLDRIGSLSGLGCNVLRRY; ends and bridges not checked; also: 125I label, position not given here; UniProt P07634 106-131, looked up)
Kd [3]: 0.0667 nM
Specific binding to soluble NPRB (soluble NPRB; 0.25 mCi ^125 l-pBNP(26), one hour, 8-fold concentrated conditioned medium): 31,837 cpm
Specific binding due to the recombinant soluble receptor protein (difference from control 293 cells) (soluble NPRB; difference between soluble NPRB and control 293 cells): 29,177 cpm
